The values that follow come from patent US10463690B2, “Method and compositions for treating cancerous tumors” (priority 2016, dated 2019).

The conditions of data set [1]: placed on rats in a 60% of the body 3rd degree burn; cited from earlier work.
In data set [2] the test system is tumor. The note with it: animal experiments; cited from earlier work.
The format of data set [3] is in vivo, Mice (SK1IPYMT 4913×SK1FVB). An excerpt: The purpose was to see how and where the test product spread throughout the body. Mice were euthanized so that internal cavity could be examined. Organs were cut in half for inspection of the extent of saturation.

Take `[O][Cl+][O-]` [ClO2, Chlorine dioxide]: the toxicity result in data set [1] was “no toxicity was indicated”.
Consider `NCCCC(N)(C(=O)O)C(F)F` (stereo not shown) [DFMO, difuoromethylornithine], for which the “effect on tumor growth” value in data set [2] is “reduced tumor growth”.
As for `CN(C)c1ccc2nc3ccc(=[N+](C)C)cc-3sc2c1` [methylene blue, Methylene blue], the “distribution of dye after injection into kidney” value in data set [3] (kidney injection) was “The entire kidney got saturated and the dye got into the urine but did not spread throughout the body”. Further, in data set [3] (liver injection), the “distribution of dye after injection into liver” value is “The dye did not spread past the injection site in the liver”.
